The values that follow come from PMC2635027 (The Journal of Biological Chemistry, 2009).

Series [1] relates to BHK21-tTA/anti-CHC cell line. The following applies: absence of tetracycline for 2 days; cited from earlier work.
Series [2] deals with BHK21-tTA/anti-CHC cell line. It is filed as cell-based, hamster. The following applies: +tet control cells; peptides 10 μM, Tf 10 μg/ml; 37 °C; confocal microscopy.
The test system of series [3] is BHK21 cells. The class given is cell-based, hamster. To be noted: BHK21 cells at 4 °C; 10 μM; confocal microscopy.

On to “transferrin: transferrin conjugated to Alexa Fluor 633, marker for clathrin-dependent endocytosis”, for which, in series [1], the “inhibition of transferrin internalization” value is reported as 90%. Besides, the “vesicular (endocytic) uptake, in words” value in series [2] was “internalized at high rates”.
Turning to “YARAARQARA [PTD4, TAMRA-PTD4 (YARAARQARA)]”, in series [2], the “vesicular (endocytic) uptake, in words” value is “presence of PTD4-containing vesicles”. Moreover, the “intracellular fluorescently labeled vesicles, in words” value in series [3] was “not observed”.
